#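 Tested at 5 concentrations; 48 h exposure; 96-well plates; endpoints linearly interpolated, else capped at highest concentration. Here, GI50 denotes the concentration required for 50% inhibition of growth.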 Activity calls are given as the source filed them. Cut-off read from the data, not from the text of the source: active = GI50 up to about 1.1 µM and inactive = higher.
# Columns and labels:
# Test in all cases: NCI anticancer screen, dose series, 48 h
# ACHN = test system: ACHN
# HCC 2998 = test system: HCC 2998
# HCT-116 = test system: HCT-116
# HCT-15 = test system: HCT-15
# HOP-92 = test system: HOP-92
# IGROV-1 = test system: IGROV-1
# MOLT-4 = test system: MOLT-4
# Malme-3M = test system: Malme-3M
# NCI-H23 = test system: NCI-H23
# NCI-H460 = test system: NCI-H460
# OVCAR-4 = test system: OVCAR-4
# RPMI-8226 = test system: RPMI-8226
# RXF 393 = test system: RXF 393
# SF-295 = test system: SF-295
# SF-539 = test system: SF-539
# SK-MEL-28 = test system: SK-MEL-28
# SK-MEL-2 = test system: SK-MEL-2
# TK-10 = test system: TK-10
# UACC-62 = test system: UACC-62
# EKVX = test system: EKVX
Structure (SMILES),GI50 (ACHN),GI50 (HCC 2998),GI50 (HCT-116),GI50 (HCT-15) [µM],GI50 (HOP-92),GI50 (IGROV-1),GI50 (MOLT-4),GI50 (Malme-3M),GI50 (NCI-H23),GI50 (NCI-H460),GI50 (OVCAR-4),GI50 (RPMI-8226),GI50 (RXF 393),GI50 (SF-295),GI50 (SF-539),GI50 (SK-MEL-28),GI50 (SK-MEL-2),GI50 (TK-10),GI50 (UACC-62),GI50 (EKVX)
CCCCCCCC/C=C/CCCCCCCC(=O)N(O)C1CC(n2cc(C)c(=O)[nH]c2=O)OC1CO (centres undefined),6.03 µM (inactive),10.6 µM (inactive),8.53 µM (inactive),4.67,13.8 µM (inactive),5.38 µM (inactive),4.41 µM (inactive),9.71 µM (inactive),10.6 µM (inactive),3.85 µM (inactive),11.2 µM (inactive),9.68 µM (inactive),3.77 µM (inactive),8.28 µM (inactive),11.6 µM (inactive),4.51 µM (inactive),13.7 µM (inactive),10.8 µM (inactive),2.64 µM (inactive),
CCOC(=O)c1ccc(O)cc1 [ETHYLPARABEN],> 100 µM (inactive),> 100 µM (inactive),> 100 µM (inactive),> 100,> 100 µM (inactive),> 100 µM (inactive),> 100 µM (inactive),> 100 µM (inactive),> 100 µM (inactive),> 100 µM (inactive),> 100 µM (inactive),> 100 µM (inactive),> 100 µM (inactive),> 100 µM (inactive),> 100 µM (inactive),> 100 µM (inactive),> 100 µM (inactive),> 100 µM (inactive),> 100 µM (inactive),> 100 µM (inactive)
COc1ccc2c(c1)[n+]([O-])c(/C(C)=N/NC(N)=S)c(C)[n+]2[O-],38.5 µM (inactive),20.5 µM (inactive),39.9 µM (inactive),45.6,> 85.9 µM (inactive),> 88.1 µM (inactive),17.8 µM (inactive),75.7 µM (inactive),> 67.9 µM (inactive),27.8 µM (inactive),58.9 µM (inactive),57 µM (inactive),> 72.9 µM (inactive),63.1 µM (inactive),> 59.8 µM (inactive),> 56.2 µM (inactive),> 96.4 µM (inactive),> 58.9 µM (inactive),44.8 µM (inactive),44 µM (inactive)
COc1ccc(CCn2cnc3ccccc32)cc1,> 100 µM (inactive),> 100 µM (inactive),> 100 µM (inactive),> 100,> 100 µM (inactive),> 100 µM (inactive),> 100 µM (inactive),> 100 µM (inactive),> 100 µM (inactive),> 100 µM (inactive),> 100 µM (inactive),> 100 µM (inactive),> 100 µM (inactive),> 100 µM (inactive),> 100 µM (inactive),,> 100 µM (inactive),> 100 µM (inactive),> 100 µM (inactive),> 100 µM (inactive)
NNC(=O)/C(NC(=O)c1ccccc1)=C(\N)c1cccc([N+](=O)[O-])c1,> 100 µM (inactive),> 100 µM (inactive),> 100 µM (inactive),> 100,> 100 µM (inactive),> 100 µM (inactive),94.2 µM (inactive),> 100 µM (inactive),> 100 µM (inactive),> 100 µM (inactive),> 100 µM (inactive),> 100 µM (inactive),> 100 µM (inactive),> 100 µM (inactive),> 100 µM (inactive),> 100 µM (inactive),> 100 µM (inactive),> 100 µM (inactive),> 100 µM (inactive),> 100 µM (inactive)
CC1=C[C@]2(O)C(=O)[C@H](C)C[C@H]3[C@@H](CC[C@@](C)(O)/C=C\2C1=O)C3(C)C,22.4 µM (inactive),30.3 µM (inactive),17.2 µM (inactive),17,23 µM (inactive),23.4 µM (inactive),17.9 µM (inactive),22.8 µM (inactive),25.6 µM (inactive),25.5 µM (inactive),23.6 µM (inactive),> 41.9 µM (inactive),15.4 µM (inactive),24.5 µM (inactive),22.4 µM (inactive),18.5 µM (inactive),17.9 µM (inactive),32 µM (inactive),16 µM (inactive),70.5 µM (inactive)
Cc1ccc2[nH]c3c(C)c4cc[n+](C)cc4c(C)c3c2c1,4.92 µM (inactive),2.06 µM (inactive),1.36 µM (inactive),14.1,4.32 µM (inactive),1.19 µM (inactive),5.87 µM (inactive),1.38 µM (inactive),1.23 µM (inactive),3.66 µM (inactive),2.54 µM (inactive),16.1 µM (inactive),1.42 µM (inactive),0.462 µM (active),0.849 µM (active),2.12 µM (inactive),1.7 µM (inactive),5.42 µM (inactive),2.68 µM (inactive),1.27 µM (inactive)
CN(Cc1cnc2nc(N)nc(N)c2n1)c1ccc(C(=O)NC(CCC(=O)O)C(=O)O)cc1 (centres undefined),0.0204 µM (active),41.5 µM (inactive),< 0.01 µM (active),< 0.01,25.4 µM (inactive),0.082 µM (active),0.0205 µM (active),7.29 µM (inactive),0.0792 µM (active),< 0.01 µM (active),> 70.8 µM (inactive),< 0.0284 µM (active),> 100 µM (inactive),< 0.0256 µM (active),< 0.014 µM (active),1.25 µM (inactive),> 100 µM (inactive),0.869 µM (active),< 0.0136 µM (active),
CCOC(=O)C(CC(C)C)NC(=O)C(Cc1ccc(N(CCCl)CCCl)cc1)NC(C)=O (centres undefined),2.08 µM (inactive),13.2 µM (inactive),18.7 µM (inactive),9.71,0.63 µM (active),11.2 µM (inactive),,2.44 µM (inactive),4.24 µM (inactive),2.75 µM (inactive),8.89 µM (inactive),2.82 µM (inactive),1.93 µM (inactive),7.05 µM (inactive),2.18 µM (inactive),5.64 µM (inactive),2.45 µM (inactive),15.2 µM (inactive),1.4 µM (inactive),11.1 µM (inactive)
COC(=O)Nc1nc2ccc(S(=O)(=O)SC)cc2[nH]1,10.2 µM (inactive),10.4 µM (inactive),4.68 µM (inactive),3.89,6.35 µM (inactive),3.37 µM (inactive),2.89 µM (inactive),9.89 µM (inactive),,5.2 µM (inactive),11.9 µM (inactive),3.84 µM (inactive),5.46 µM (inactive),7.8 µM (inactive),4 µM (inactive),8.28 µM (inactive),7.19 µM (inactive),8.09 µM (inactive),3.9 µM (inactive),8.69 µM (inactive)
O=C(/C=C/c1c(O)ccc2ccccc12)c1cccc2ccccc12,> 100 µM (inactive),> 100 µM (inactive),57.7 µM (inactive),> 58.7,> 100 µM (inactive),> 100 µM (inactive),51.5 µM (inactive),> 87.5 µM (inactive),> 100 µM (inactive),> 100 µM (inactive),,42.1 µM (inactive),> 100 µM (inactive),> 100 µM (inactive),> 100 µM (inactive),> 100 µM (inactive),> 95.1 µM (inactive),> 100 µM (inactive),> 100 µM (inactive),> 100 µM (inactive)
